Earlier results as cited in PubChem BioAssay AID1259409 (Chemical Carcinogenesis Research Information System (CCRIS), 2018).

Test system: rodent chemically induced tumor inhibition, incidence and multiplicity
Assay: CCRIS tumor inhibitor studies
Conditions: Promoter: NONE USED

Structure (SMILES): C=C(C)[C@H]1CC=C(C)CC1
- tumour outcome (control, treated, inhibition, significance) (Carcinogen: 4-(METHYLNITROSAMINO)-1-(3-PYRIDYL)-1-BUTANONE, 64019-91-4, Dose [Inhibitor]: 0, 25 MG LIMONENE OIL 0.2 ML COTTONSEED OIL 1 HR PRIOR TO EACH CARCINOGEN DOSE (STUDY DURATION: 28 WK), Route [Inhibitor]: INTRAGASTRIC, Species: MOUSE, Strain/Sex: STRAIN-A/FEMALE, Target Tissue: Type of Lesion: FORESTOMACH: PAPILLOMA, Dose [Carcinogen]: 0.5 MG IN O.1 ML TRICAPRYLIN 2/WK FOR 8 WK): 17%, 0%, 100%,
- tumour outcome (control, treated, inhibition, significance) (Carcinogen: 4-(METHYLNITROSAMINO)-1-(3-PYRIDYL)-1-BUTANONE, 64091-91-4, Dose [Inhibitor]: 0, 0.63% IN DIET FOR 17 WK BEGINNING 1 WK PRIOR TO CARCINOGEN DOSE (STUDY DURATION: 17 WK), Route [Inhibitor]: ORAL, Species: MOUSE, Strain/Sex: STRAIN-A/FEMALE, Target Tissue: Type of Lesion: LUNG: ADENOMA, Dose [Carcinogen]: 10 UMOL IN 0.1 ML SALINE ONCE): 100%, 96%, 4%, not significant
- tumour outcome (control, treated, inhibition, significance) (Carcinogen: 4-(METHYLNITROSAMINO)-1-(3-PYRIDYL)-1-BUTANONE, 64091-91-4, Dose [Inhibitor]: 0, 25 MG IN 0.2 ML COTTONSEED OIL 1 HR PRIOR TO EACH CARCINOGEN DOSE (STUDY DURATION: 28 WK), Route [Inhibitor]: INTRAGASTRIC, Species: MOUSE, Strain/Sex: STRAIN-A/FEMALE, Target Tissue: Type of Lesion: FORESTOMACH: PAPILLOMA, Dose [Carcinogen]: 0.5 MG IN 0.1 ML TRICAPRYLIN 2/WK FOR 8 WK): 90%, 0%, 100%, p<0.001
- tumour outcome (control, treated, inhibition, significance) (Carcinogen: 4-(METHYLNITROSAMINO)-1-(3-PYRIDYL)-1-BUTANONE, 64091-91-4, Dose [Inhibitor]: O, 25 MG LIMONENE FROM LEMON OIL IN 0.2 ML COTTONSEED OIL 1 HR PRIOR TO EACH CARCINOGEN DOSE (STUDY DURATION: 28 WK), Route [Inhibitor]: INTRAGASTRIC, Species: MOUSE, Strain/Sex: STRAIN-A/FEMALE, Target Tissue: Type of Lesion: FORESTOMACH: PAPILLOMA, Dose [Carcinogen]: 0.5 MG IN OIL ML TRICAPRYLIN 2/WK FOR 8 WK): 17%, 0%, 100%, not calculated
- tumour outcome (control, treated, inhibition, significance) (Carcinogen: 7,12-DIMETHYLBENZ[A]ANTHRACENE, 57-97-6, Dose [Inhibitor]: 0, 1% IN DIET FOR 3 WK BEGINNING 2 WK PRIOR TO CARCINOGEN DOSE (STUDY DURATION: 20 WK), Route [Inhibitor]: ORAL, Species: RAT, Strain/Sex: WISTAR/FEMALE, Target Tissue: Type of Lesion: MAMMARY GLAND: CARCINOMA, Dose [Carcinogen]: 50 MG/KG IN SESAME OIL ONCE): 98%, 96%, 2%, not significant
- tumour outcome (control, treated, inhibition, significance) (Carcinogen: 7,12-DIMETHYLBENZ[A]ANTHRACENE, 57-97-6, Dose [Inhibitor]: 0, 5% IN DIET BEGINNING POST CARCINOGEN TREATMENT AND CONTINUING FOR 25 WK (STUDY DURATION: 25 WK), Route [Inhibitor]: ORAL, Species: RAT, Strain/Sex: SPRAGUE-DAWLEY/FEMALE, Target Tissue: Type of Lesion: MAMMARY GLAND: TUMOR, Dose [Carcinogen]: 65 MG/KG IN SESAME OIL ONCE): 100%, 97%, 3%, not significant
- tumour outcome (control, treated, inhibition, significance) (Carcinogen: 7,12-DIMETHYLBENZ[A]ANTHRACENE, 57-97-6, Dose [Inhibitor]: 0, 5% IN DIET FOR 1 WK PRIOR TO AND 1 WK POST CARCINOGEN TREATMENT (STUDY DURATION: 25 WK), Route [Inhibitor]: ORAL, Species: RAT, Strain/Sex: SPRAGUE-DAWLEY/FEMALE, Target Tissue: Type of Lesion: MAMMARY GLAND: TUMOR, Dose [Carcinogen]: 65 MG/KG IN SESAME OIL ONCE): 100%, 88%, 12%, not significant
- tumour outcome (control, treated, inhibition, significance) (Carcinogen: 7,12-DIMETHYLBENZ[A]ANTHRACENE, 57-97-6, Dose [Inhibitor]: 0, 36 MMOL/KG IN DIET FOR 24 WK BEGINNING 2 WK PRIOR TO CARCINOGEN DOSE (STUDY DURATION: 24 WK), Route [Inhibitor]: ORAL, Species: RAT, Strain/Sex: SPRAGUE-DAWLEY/FEMALE, Target Tissue: Type of Lesion: MAMMARY GLAND: TUMOR, Dose [Carcinogen]: 65 MG/KG BW ONCE): 91%, 75%, 18%, not significant
- tumour outcome (control, treated, inhibition, significance) (Carcinogen: BENZO[A]PYRENE, 50-32-8, Dose [Inhibitor]: 10 MG IN 0.1 ML ACETONE 3/WK ADMINISTERED SIMULTANEOUSLY WITH CARCINOGEN FOR DURATION OF STUDY (STUDY DURATION: 440 D), Route [Inhibitor]: DERMAL, Species: MOUSE, Strain/Sex: ICR/FEMALE, Target Tissue: Type of Lesion: SKIN: PAPILLOMA, Dose [Carcinogen]: 5 UG IN 0.1 ML ACETONE 3/WK FOR DURATION OF STUDY): 16/50 (32%), 13/50 (26%), 19%, not calculated
- tumour outcome (control, treated, inhibition, significance) (Carcinogen: BENZO[A]PYRENE, 50-32-8, Dose [Inhibitor]: 10 MG IN 0.1 ML ACETONE 3/WK ADMINISTERED SIMULTANEOUSLY WITH CARCINOGEN FOR DURATION OF STUDY (STUDY DURATION: 440 D), Route [Inhibitor]: DERMAL, Species: MOUSE, Strain/Sex: ICR/FEMALE, Target Tissue: Type of Lesion: SKIN: SQUAMOUS CARCINOMA, Dose [Carcinogen]: 5 UG IN 0.1 ML ACETONE 3/WK FOR DURATION OF STUDY): 12/50 (24%), 4/50 (8%), 67%, not calculated
- tumour outcome (control, treated, inhibition, significance) (Carcinogen: DIETHYLNITROSAMINE, 55-18-5, N-METHYL-N-NITROSOUREA, 684-93-5, N-BUTYL-N-(4-HYDROXYBUTYL)NITROSAMINE, 3817-11-6, 1, Carcinogen: DIETHYLNITROSAMINE, 55-18-5, N-METHYL-N-NITROSOUREA, 684-93-5, N-BUTYL-N-(4-HYDROXYBUTYL)NITROSAMINE, 3817-11-6, 1, Dose [Inhibitor]: 0, 0.5% IN DIET FOR 24 WK BEGINNING POST CARCINOGEN TREATMENT (STUDY DURATION: 28 WK), Route [Inhibitor]: ORAL, Species: RAT, Strain/Sex: F344/MALE, Target Tissue: Type of Lesion: KIDNEY: ADENOMA, Dose [Carcinogen]: 100 MG/KG DEN IP ONCE, 20 MG/KG MNU IP 2/WK FOR FIRST 2 WK, 0.05% BBN IN DRINKING WATER DURING FIRST 2 WK, 40 MG/KG D, Dose [Carcinogen]: 100 MG/KG DEN IP ONCE, 20 MG/KG MNU IP 2/WK FOR FIRST 2 WK, 0.05% BBN IN DRINKING WATER DURING FIRST 2 WK, 40 MG/KG D): 4/19 (21%), 6/20 (30%), -43%, not significant
- tumour outcome (control, treated, inhibition, significance) (Carcinogen: DIETHYLNITROSAMINE, 55-18-5, N-METHYL-N-NITROSOUREA, 684-93-5, N-BUTYL-N-(4-HYDROXYBUTYL)NITROSAMINE, 3817-11-6, 1, Carcinogen: DIETHYLNITROSAMINE, 55-18-5, N-METHYL-N-NITROSOUREA, 684-93-5, N-BUTYL-N-(4-HYDROXYBUTYL)NITROSAMINE, 3817-11-6, 1, Dose [Inhibitor]: 0, 1% IN DIET FOR 24 WK BEGINNING POST CARCINOGEN TREATMENT (STUDY DURATION: 28 WK), Route [Inhibitor]: ORAL, Species: RAT, Strain/Sex: F344/MALE, Target Tissue: Type of Lesion: KIDNEY: ADENOMA, Dose [Carcinogen]: 100 MG/KG DEN IP ONCE, 20 MG/KG MNU IP 2/WK FOR FIRST 2 WK, 0.05% BBN IN DRINKING WATER DURING FIRST 2 WK, 40 MG/KG D, Dose [Carcinogen]: 100 MG/KG DEN IP ONCE, 20 MG/KG MNU IP 2/WK FOR FIRST 2 WK, 0.05% BBN IN DRINKING WATER DURING FIRST 2 WK, 40 MG/KG D): 4/19 (21%), 5/19 (26%), -24%, not significant
- tumour outcome (control, treated, inhibition, significance) (Carcinogen: DIETHYLNITROSAMINE, 55-18-5, N-METHYL-N-NITROSOUREA, 684-93-5, N-BUTYL-N-(4-HYDROXYBUTYL)NITROSAMINE, 3817-11-6, 1, Carcinogen: DIETHYLNITROSAMINE, 55-18-5, N-METHYL-N-NITROSOUREA, 684-93-5, N-BUTYL-N-(4-HYDROXYBUTYL)NITROSAMINE, 3817-11-6, 1, Dose [Inhibitor]: 0, 2% IN DIET FOR 24 WK BEGINNING POST CARCINOGEN TREATMENT (STUDY DURATION: 28 WK), Route [Inhibitor]: ORAL, Species: RAT, Strain/Sex: F344/MALE, Target Tissue: Type of Lesion: KIDNEY: ADENOMA, Dose [Carcinogen]: 100 MG/KG DEN IP ONCE, 20 MG/KG MNU IP 2/WK FOR FIRST 2 WK, 0.05% BBN IN DRINKING WATER DURING FIRST 2 WK, 40 MG/KG D, Dose [Carcinogen]: 100 MG/KG DEN IP ONCE, 20 MG/KG MNU IP 2/WK FOR FIRST 2 WK, 0.05% BBN IN DRINKING WATER DURING FIRST 2 WK, 40 MG/KG D): 4/19 (21%), 13/19 (68%), -224%, p<0.01
- tumour outcome (control, treated, inhibition, significance) (Carcinogen: METHYLCHOLANTHRENE, 56-49-5, Dose [Inhibitor]: 0, 0.5 ML 1/WK FOR 1 YR BEGINNING POST CARCINOGEN TREATMENT (STUDY DURATION: 24 MO), Route [Inhibitor]: GAVAGE, Species: MOUSE, Strain/Sex: SWISS/FEMALE, Target Tissue: Type of Lesion: LUNG: PAPILLARY ADENOMA AND ADENOCARCINOMA, Dose [Carcinogen]: 0.01 MG ON D 1, 7, 14 AND 21 AFTER BIRTH): 7/11 (64%), 8/12 (67%), -5%, not calculated
- tumour outcome (control, treated, inhibition, significance) (Carcinogen: METHYLCHOLANTHRENE, 56-49-5, Dose [Inhibitor]: 0, 0.5 ML 1/WK FOR 1 YR BEGINNING POST CARCINOGEN TREATMENT (STUDY DURATION: 24 MO), Route [Inhibitor]: GAVAGE, Species: MOUSE, Strain/Sex: SWISS/MALE, Target Tissue: Type of Lesion: LIVER: HEPATOCELLULAR ADENOMA AND CARCINOMA, Dose [Carcinogen]: 0.01 MG ON D 1, 7, 14 AND 21 AFTER BIRTH): 3/13 (23%), 2/14 (14%), 39%, not calculated
- tumour outcome (control, treated, inhibition, significance) (Carcinogen: METHYLCHOLANTHRENE, 56-49-5, Dose [Inhibitor]: 0, 0.5 ML 1/WK FOR 1 YR BEGINNING POST CARCINOGEN TREATMENT (STUDY DURATION: 24 MO), Route [Inhibitor]: GAVAGE, Species: MOUSE, Strain/Sex: SWISS/MALE, Target Tissue: Type of Lesion: LUNG: PAPILLARY ADENOMA AND ADENOCARCINOMA, Dose [Carcinogen]: 0.01 MG ON D 1, 7, 14 AND 21 AFTER BIRTH): 10/13 (77%), 7/14 (50%), 35%, not calculated
